Experimental data reported in BindingDB's records for doi:10.1016/j.bmcl.2018.12.057 (Indian Institute of Technology Madras, 2019).

Biological target: Luciferin 4-monooxygenase (Photinus pyralis, UniProt P08659)
Assay: Activation of firefly luciferase activity expressed in HEK293T cells after 6 hrs by luminescence assay

Luciferin 4-monooxygenase, sequence (P08659 whole entry): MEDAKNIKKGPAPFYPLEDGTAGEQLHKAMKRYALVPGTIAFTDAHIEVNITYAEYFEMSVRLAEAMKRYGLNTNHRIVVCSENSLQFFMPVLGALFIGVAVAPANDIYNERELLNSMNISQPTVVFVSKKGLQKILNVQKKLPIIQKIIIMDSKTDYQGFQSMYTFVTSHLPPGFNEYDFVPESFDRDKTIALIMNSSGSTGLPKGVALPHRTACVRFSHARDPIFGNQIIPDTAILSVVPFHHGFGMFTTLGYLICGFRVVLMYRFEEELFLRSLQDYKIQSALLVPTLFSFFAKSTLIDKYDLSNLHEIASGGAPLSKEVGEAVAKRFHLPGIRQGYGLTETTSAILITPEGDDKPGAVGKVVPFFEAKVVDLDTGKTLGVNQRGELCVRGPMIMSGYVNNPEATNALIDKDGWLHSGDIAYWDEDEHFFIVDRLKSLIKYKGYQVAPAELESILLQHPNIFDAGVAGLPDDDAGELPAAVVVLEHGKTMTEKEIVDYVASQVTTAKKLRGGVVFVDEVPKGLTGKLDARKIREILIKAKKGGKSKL

SMILES: CCCCCCCCCCCCCC(=O)O[C@@H]1[C@@H](C)[C@@]2(O)[C@@H](C=C(CO)C[C@]3(O)C(=O)C(C)=C[C@@H]23)[C@@H]2C(C)(C)[C@]12OC(C)=O [phorbol 13-acetate 12-myristate]
- EC50: 10 nM
